# Measurements reported in US20090088463A1, “Pyrazoles Useful in the Treatment of Inflammation” (priority 2005, published 2009).
# Biological target: T1, purified human 15-lipoxygenase (Homo sapiens, UniProt P16050)
# T1 sequence (P16050 1-662): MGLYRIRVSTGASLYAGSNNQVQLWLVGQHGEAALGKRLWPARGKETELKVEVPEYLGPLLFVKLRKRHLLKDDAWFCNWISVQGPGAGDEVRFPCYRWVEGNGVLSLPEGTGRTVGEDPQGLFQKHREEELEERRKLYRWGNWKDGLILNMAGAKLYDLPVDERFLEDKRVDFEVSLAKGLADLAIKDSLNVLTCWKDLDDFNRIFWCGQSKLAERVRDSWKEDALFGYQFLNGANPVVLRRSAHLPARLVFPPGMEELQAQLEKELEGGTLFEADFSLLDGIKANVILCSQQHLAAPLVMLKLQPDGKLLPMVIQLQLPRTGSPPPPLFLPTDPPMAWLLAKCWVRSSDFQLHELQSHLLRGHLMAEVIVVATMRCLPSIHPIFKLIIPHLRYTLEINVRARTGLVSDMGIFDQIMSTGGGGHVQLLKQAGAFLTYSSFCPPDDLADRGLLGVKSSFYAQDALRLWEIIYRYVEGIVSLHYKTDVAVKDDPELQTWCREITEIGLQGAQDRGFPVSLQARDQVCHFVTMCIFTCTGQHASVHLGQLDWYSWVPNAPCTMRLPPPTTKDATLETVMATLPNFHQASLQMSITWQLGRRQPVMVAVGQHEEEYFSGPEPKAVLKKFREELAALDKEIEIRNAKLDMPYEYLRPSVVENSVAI
# Test: 15-lipoxygenase inhibition assay (arachidonic acid oxidation, HPLC readout)
# Format: biochemical
# Settings: arachidonic acid substrate, room temperature
# Method: The assay employed takes advantage of the ability of lipoxygenases to oxidize polyunsaturated fatty acids, containing a 1,4-cis-pentadiene configuration, to their corresponding hydroperoxy or hydroxyl derivatives. In this particular assay, the lipoxygenase was a purified human 15-lipoxygenase and the fatty acid was arachidonic acid. The assay is performed at room temperature (20-22° C.) and the following are added to each well in a 96-well microtiter plate:
# a) 35 μL phosphate buffered saline (PBS) (pH 7.4); b) inhibitor (i.e. compound) or vehicle (0.5 μl DMSO); c) 10 μL of a 10× concentrated solution of 15-lipoxygenase in PBS. The plates are incubated for 5 minutes at room temperature; d) 5 μl of 0.125 mM arachidonic acid in PBS. The plate is then incubated for 10 minutes at room temperature; e) the enzymatic reaction is terminated by the addition of 100 μl methanol; and
# f) the amount of 15-hydroperoxy-eicosatetraenoic acid or 15-hydroxy-eicosatetraenoic acid is measured by reverse phase HPLC.
row,SMILES,IC50 [µM]
1,"O=C(Nc1ccc(F)c(F)c1F)c1cc[nH]n1 [Example 7, N-(2,3,4-Trifluorophenyl)pyrazole-3-carboxamide]",1.8
2,"O=C(Nc1cc(Cl)ccc1Cl)c1cc[nH]n1 [Example 13, N-(2,5-Dichlorophenyl)pyrazole-3-carboxamide]",1.1
3,"Cc1ccc(NC(=O)c2cc[nH]n2)c(C)c1 [Example 14, N-(2,4-Dimethylphenyl)pyrazole-3-carboxamide]",0.84

# Compounds with a lower IC50, results first:
row,IC50 [µM],SMILES
1,0.75,"Cc1cc(Cl)ccc1NC(=O)c1cc[nH]n1 [Example 9, N-(4-Chloro-2-methylphenyl)pyrazole-3-carboxamide]"
2,0.16,"O=C(Nc1ccc(OC(F)(F)F)cc1Br)c1cc[nH]n1 [Example 2, N-(2-Bromo-4-trifluoromethoxyphenyl)pyrazole-3-carboxamide]"
3,0.14,"O=C(Nc1ccc(Br)cc1OC(F)(F)F)c1cc[nH]n1 [Example 15, N-(4-Bromo-2-trifluoromethoxyphenyl)pyrazole-3-carboxamide]"
